In ChEMBL document CHEMBL5291721, “A preclinical secondary pharmacology resource illuminates target-adverse drug reaction associations of marketed drugs” (Nat Commun, 2023):

What was measured:
[1] = target: T1, Amine oxidase [flavin-containing] A (Homo sapiens, UniProt P21397); format: functional
T1 sequence (P21397 whole entry): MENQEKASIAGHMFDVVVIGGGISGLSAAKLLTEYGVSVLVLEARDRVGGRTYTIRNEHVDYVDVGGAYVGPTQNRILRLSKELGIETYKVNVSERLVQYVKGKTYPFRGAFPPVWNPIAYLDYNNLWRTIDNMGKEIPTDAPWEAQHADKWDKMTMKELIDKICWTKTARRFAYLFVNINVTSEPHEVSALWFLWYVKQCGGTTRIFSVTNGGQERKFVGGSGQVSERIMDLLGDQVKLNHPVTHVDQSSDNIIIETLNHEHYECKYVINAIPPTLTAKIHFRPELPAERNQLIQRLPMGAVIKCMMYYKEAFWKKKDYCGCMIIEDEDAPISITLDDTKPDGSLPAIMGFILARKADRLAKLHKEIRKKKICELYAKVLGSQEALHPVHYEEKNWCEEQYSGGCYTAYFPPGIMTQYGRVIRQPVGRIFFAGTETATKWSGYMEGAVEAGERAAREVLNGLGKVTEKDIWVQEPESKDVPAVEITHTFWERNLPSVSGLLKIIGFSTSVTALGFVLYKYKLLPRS

[2] = target: T2, Equilibrative nucleoside transporter 1 (Homo sapiens, UniProt Q99808)
T2 sequence (Q99808 whole entry): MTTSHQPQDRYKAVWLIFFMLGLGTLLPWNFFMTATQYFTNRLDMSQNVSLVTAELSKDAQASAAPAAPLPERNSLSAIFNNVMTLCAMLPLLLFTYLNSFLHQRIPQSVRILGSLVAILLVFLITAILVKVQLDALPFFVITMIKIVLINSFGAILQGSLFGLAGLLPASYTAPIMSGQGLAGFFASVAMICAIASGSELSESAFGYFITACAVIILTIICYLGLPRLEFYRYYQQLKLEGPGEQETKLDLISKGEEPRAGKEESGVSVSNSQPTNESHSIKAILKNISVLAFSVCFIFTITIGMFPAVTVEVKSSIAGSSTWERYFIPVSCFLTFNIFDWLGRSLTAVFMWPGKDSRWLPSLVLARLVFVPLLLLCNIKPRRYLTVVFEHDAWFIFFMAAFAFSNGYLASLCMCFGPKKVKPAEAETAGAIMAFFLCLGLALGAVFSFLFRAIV

Progesterone receptor = target: T3, Progesterone receptor (Homo sapiens, UniProt P06401); format: functional
T3 sequence (P06401 whole entry): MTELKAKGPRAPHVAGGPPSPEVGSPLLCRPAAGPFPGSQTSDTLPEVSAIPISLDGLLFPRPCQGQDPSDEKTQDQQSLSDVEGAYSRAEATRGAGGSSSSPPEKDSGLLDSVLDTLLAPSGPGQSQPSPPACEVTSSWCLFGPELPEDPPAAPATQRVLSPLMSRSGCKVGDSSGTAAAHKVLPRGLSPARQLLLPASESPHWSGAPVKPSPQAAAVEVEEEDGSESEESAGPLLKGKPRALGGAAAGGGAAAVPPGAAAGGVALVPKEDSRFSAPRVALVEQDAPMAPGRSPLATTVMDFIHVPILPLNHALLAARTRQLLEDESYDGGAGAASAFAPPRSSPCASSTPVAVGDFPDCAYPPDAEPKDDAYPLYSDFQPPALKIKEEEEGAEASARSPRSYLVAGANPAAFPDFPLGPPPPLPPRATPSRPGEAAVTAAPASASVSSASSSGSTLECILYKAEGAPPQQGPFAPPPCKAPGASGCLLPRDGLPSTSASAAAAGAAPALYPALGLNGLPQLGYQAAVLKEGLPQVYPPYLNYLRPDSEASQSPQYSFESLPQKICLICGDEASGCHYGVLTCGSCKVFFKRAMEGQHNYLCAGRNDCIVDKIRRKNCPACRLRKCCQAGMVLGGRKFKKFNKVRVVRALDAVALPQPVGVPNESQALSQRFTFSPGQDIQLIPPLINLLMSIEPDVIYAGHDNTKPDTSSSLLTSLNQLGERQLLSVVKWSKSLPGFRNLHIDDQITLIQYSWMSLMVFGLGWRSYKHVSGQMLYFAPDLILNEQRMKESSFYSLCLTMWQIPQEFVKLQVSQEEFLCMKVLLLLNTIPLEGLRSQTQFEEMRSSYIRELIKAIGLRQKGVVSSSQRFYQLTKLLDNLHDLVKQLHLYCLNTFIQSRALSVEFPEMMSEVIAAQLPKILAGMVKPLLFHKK

[3] = target: Voltage-gated inwardly rectifying potassium channel KCNH2 (Homo sapiens, UniProt Q12809); format: functional; details: read-out: AC50
[4] = target: T4, Alpha-2B adrenergic receptor (Homo sapiens, UniProt P18089)
T4 sequence (P18089 whole entry): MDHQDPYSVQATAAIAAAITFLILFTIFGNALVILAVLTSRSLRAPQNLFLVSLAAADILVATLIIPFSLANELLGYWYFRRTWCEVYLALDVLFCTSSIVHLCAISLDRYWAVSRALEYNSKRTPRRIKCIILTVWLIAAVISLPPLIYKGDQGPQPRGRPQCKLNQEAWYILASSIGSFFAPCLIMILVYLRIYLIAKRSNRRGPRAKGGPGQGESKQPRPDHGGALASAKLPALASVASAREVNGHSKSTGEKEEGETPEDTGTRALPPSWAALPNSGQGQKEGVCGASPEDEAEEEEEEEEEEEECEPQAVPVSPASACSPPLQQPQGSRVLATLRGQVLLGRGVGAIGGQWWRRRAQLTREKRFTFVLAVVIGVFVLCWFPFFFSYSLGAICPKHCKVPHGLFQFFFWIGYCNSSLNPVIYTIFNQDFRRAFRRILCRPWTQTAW
Note: assay procedure not described here.

Voltage-gated inwardly rectifying potassium channel KCNH2, sequence (Q12809 whole entry): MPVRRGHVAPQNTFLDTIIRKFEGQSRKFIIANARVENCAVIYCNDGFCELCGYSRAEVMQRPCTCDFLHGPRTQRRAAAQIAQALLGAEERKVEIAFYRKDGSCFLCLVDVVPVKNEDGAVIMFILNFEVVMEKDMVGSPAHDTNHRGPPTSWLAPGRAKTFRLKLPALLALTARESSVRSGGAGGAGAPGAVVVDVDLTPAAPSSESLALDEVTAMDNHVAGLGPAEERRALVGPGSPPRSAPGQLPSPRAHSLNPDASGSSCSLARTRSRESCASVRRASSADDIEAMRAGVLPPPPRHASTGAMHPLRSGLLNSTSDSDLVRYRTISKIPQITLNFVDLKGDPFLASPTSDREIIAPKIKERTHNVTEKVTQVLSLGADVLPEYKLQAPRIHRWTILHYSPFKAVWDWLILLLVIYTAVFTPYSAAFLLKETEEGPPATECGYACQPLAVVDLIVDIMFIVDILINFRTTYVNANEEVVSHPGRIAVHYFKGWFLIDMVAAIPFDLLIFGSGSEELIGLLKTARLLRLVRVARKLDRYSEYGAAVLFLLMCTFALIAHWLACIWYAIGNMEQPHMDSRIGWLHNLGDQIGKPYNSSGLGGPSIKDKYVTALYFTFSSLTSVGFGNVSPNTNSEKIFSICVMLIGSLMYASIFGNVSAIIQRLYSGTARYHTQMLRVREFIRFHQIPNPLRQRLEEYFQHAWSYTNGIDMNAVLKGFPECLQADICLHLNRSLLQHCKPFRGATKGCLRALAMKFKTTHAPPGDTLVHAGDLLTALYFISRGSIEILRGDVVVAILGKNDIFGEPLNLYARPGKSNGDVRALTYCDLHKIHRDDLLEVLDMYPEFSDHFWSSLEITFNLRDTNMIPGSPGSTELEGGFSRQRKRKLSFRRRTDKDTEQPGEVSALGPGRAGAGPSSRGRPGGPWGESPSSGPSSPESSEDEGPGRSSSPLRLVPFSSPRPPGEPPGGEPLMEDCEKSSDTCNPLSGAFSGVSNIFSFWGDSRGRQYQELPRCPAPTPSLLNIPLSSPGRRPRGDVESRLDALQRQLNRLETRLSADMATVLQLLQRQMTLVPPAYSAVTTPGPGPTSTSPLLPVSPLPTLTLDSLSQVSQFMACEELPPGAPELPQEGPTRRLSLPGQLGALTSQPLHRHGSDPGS

SMILES	AC50 [1]	AC50 [2]	AC50 (Progesterone receptor)	AC50 [3]	AC50 [4]
COc1ccc(/C=C/C(=O)Nc2ccccc2C(=O)O)cc1OC	> 30 µM	> 30 µM	> 30 µM		
NCCCC(O)(P(=O)(O)O)P(=O)(O)O [ALENDRONIC ACID]	> 10 µM	> 30 µM			
Nc1ccc(C(=O)O)c(O)c1 [AMINOSALICYLIC ACID]	> 30 µM		> 30 µM	> 30 µM	
COc1cc(OC)c(C(=O)CCCN2CCCC2)c(OC)c1 [BUFLOMEDIL]	> 30 µM	> 30 µM	> 30 µM	2.6 µM	
CS(=O)(=O)OCCCCOS(C)(=O)=O [BUSULFAN]	> 30 µM	> 30 µM	> 30 µM	> 30 µM	
CCCC(C)(COC(N)=O)COC(=O)NC(C)C (stereo not drawn) [CARISOPRODOL]	> 10 µM	> 30 µM		> 30 µM	> 10 µM
CCCCCCNC(=O)n1cc(F)c(=O)[nH]c1=O [CARMOFUR]	> 30 µM	> 30 µM	> 30 µM	> 30 µM	
C=CC1=C(C(=O)O)N2C(=O)[C@@H](NC(=O)/C(=N\OCC(=O)O)c3csc(N)n3)[C@H]2SC1 [CEFIXIME]	> 30 µM	> 30 µM	> 30 µM	> 30 µM	
CC(C)(C)NCC(O)c1cc(Cl)c(N)c(Cl)c1 (stereo not drawn) [CLENBUTEROL]	> 30 µM	> 30 µM	> 30 µM	> 30 µM	
COc1cccc2c1C(=O)c1c(O)c3c(c(O)c1C2=O)C[C@@](O)(C(C)=O)C[C@@H]3O[C@H]1C[C@H](N)[C@H](O)[C@H](C)O1 [DAUNORUBICIN]	> 30 µM	14.3 µM	7.42 µM	> 30 µM	
N[C@H](Cc1cc(I)c(Oc2cc(I)c(O)c(I)c2)c(I)c1)C(=O)O [DEXTROTHYROXINE]	> 10 µM	> 30 µM		> 30 µM	> 10 µM
C[C@@H]1C[C@H]2[C@@H]3C[C@H](F)C4=CC(=O)C=C[C@]4(C)[C@@]3(F)[C@@H](O)C[C@]2(C)[C@H]1C(=O)CO [DIFLUCORTOLONE]	> 30 µM		0.052 µM		
Clc1ccc2c(c1)C(c1ccccc1)=NCc1nncn1-2 [ESTAZOLAM]	> 10 µM	> 30 µM		> 30 µM	> 10 µM
CC(=O)OCC(CCn1cnc2cnc(N)nc21)COC(C)=O [FAMCICLOVIR]	> 10 µM	> 30 µM		> 30 µM	
O=C(O)c1ccccc1Nc1cccc(C(F)(F)F)c1 [FLUFENAMIC ACID]	> 10 µM	> 30 µM		> 30 µM	> 10 µM
Nc1ccn([C@@H]2O[C@H](CO)[C@@H](O)C2(F)F)c(=O)n1 [GEMCITABINE]	> 10 µM		> 30 µM	> 30 µM	
C#C[C@]1(O)CC[C@H]2[C@@H]3CCC4=CC(=O)CCC4=C3C=C[C@@]21CC [GESTRINONE]	> 30 µM		0.1 µM	> 30 µM	> 30 µM
COC1=C(OC)C(=O)C(CCCCCCCCCCO)=C(C)C1=O [IDEBENONE]	8.5 µM	21.9 µM		> 30 µM	
